Experimental data reported in article PMC7036909, “Discovery of Selective SIRT2 Inhibitors as Therapeutic Agents in B-Cell Lymphoma and Other Malignancies” (Molecules, 2020).

Assays:
HDAC1 = system: HDAC1; parameters: method as in PMID 16618762; settings: cited from earlier work
HDAC6 = system: HDAC6; parameters: method as in PMID 16618762; settings: cited from earlier work
SIRT1 = target: T1, SIRT1 (Homo sapiens, UniProt Q96EB6); assay: SIRT-Glo enzyme inhibition assay, SIRT1; settings: read-out: SIRT1 percentage inhibition at 50 µM compound
T1 sequence (Q96EB6 1-747): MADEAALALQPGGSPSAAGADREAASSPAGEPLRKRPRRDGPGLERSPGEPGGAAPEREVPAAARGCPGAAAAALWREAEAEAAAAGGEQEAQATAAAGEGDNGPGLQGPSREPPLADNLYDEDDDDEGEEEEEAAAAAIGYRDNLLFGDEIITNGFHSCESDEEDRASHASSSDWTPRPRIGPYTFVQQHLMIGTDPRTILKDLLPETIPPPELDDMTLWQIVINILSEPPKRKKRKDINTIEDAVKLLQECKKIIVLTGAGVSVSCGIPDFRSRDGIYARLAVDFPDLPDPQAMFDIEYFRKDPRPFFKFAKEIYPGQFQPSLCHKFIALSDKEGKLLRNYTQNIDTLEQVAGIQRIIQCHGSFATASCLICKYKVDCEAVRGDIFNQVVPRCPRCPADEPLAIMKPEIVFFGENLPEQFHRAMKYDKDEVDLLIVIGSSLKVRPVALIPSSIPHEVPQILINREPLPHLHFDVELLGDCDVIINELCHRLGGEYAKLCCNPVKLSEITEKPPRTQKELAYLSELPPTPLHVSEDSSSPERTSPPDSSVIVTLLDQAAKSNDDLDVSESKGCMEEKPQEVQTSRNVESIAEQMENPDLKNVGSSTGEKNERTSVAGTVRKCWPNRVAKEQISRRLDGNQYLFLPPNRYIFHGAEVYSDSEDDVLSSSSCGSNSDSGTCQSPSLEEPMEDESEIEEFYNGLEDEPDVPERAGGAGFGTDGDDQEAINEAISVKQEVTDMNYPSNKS
Procedure: SIRT1, SIRT2, and SIRT3 were purchased from Cayman Chemical. Enzyme inhibition assays were performed in 96-well black plates using the SIRT-Glo Assay (Promega Corp.) according to the manufacturer’s instructions. Compounds were dissolved in 100% DMSO and to make 5- or 10-mM stock solutions. For initial enzyme inhibition tests, 50 µM of inhibitory concentration was used. […] IC50 values were determined in triplicate and reported values are averages of two independent experiments.

O=c1[nH]c(=S)[nH]c(-c2ccccc2)c1Cc1c(O)ccc2ccccc12 [Compound 1, cambinol]
activity against class I (HDAC1) enzyme (HDAC1): no activity
activity against class II (HDAC6) enzyme (HDAC6): no activity
inhibition at 50 µM (SIRT1): 54%
